Measurements from US6472348B1, “Pyridone derivatives and herbicides” (Kumiai Chemical Industry Co., Ltd., priority 1996, dated 2002).

system: wheat (Tr); test: Test Example 9: crop plant selectivity by upland field foliage treatment (wheat), phytotoxicity; conditions: dose 1.6 g ai/10a, 14th day after treatment;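 note: grade of crop injury; 5 = at least 90%; 4 = 70 to 90%; 3 = 50 to 70%; 2 = 30 to 50%; 1 = 10 to 30%; 0 = under 10%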
Experimental: (§1) (Test on Crop Plant Selectivity by Upland Field Foliage Treatment)
(§2) In a plastic pot (surface area: 600 cm^2) filled with sand, wheat (Tr), pale smartweed (Po), slender amaranth (Am), common lambsquarters (Ch) and China jute (Ab) were sown and cultured in a green house for 2 weeks. […] The plants were then cultured in a green house, and the evaluation of the herbicidal effects and phytotoxicity was conducted on the 14th day after the treatment in accordance with the standards as identified in Table 47.

SMILES	Phytotoxicity Tr
CCCCCOC(=O)COc1cc(-c2ccc(C(F)(F)F)n(C)c2=O)c(F)cc1Cl [1-20]	2
CCCOC(=O)c1cc(-c2ccc(C(F)(F)F)n(C)c2=O)c(F)cc1Cl [1-158]	2
CCOC(C)c1cc2c(-c3ccc(C(F)(F)F)n(C)c3=O)c(F)cc(Cl)c2o1 (stereo not drawn) [Compound 4-36]	2

system: common lambsquarters (Ch); test: Test Example 9: crop plant selectivity by upland field foliage treatment (wheat), herbicidal effects; format: in vivo; design: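 grade of growth control; 5 = at least 90%; 4 = 70 to 90%; 3 = 50 to 70%; 2 = 30 to 50%; 1 = 10 to 30%; 0 = under 10%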; conditions: dose 1.6 g ai/10a, 14th day after treatment
Experimental: as §1, §2

SMILES	Herbicidal effects Ch
CCCCCOC(=O)COc1cc(-c2ccc(C(F)(F)F)n(C)c2=O)c(F)cc1Cl [1-20]	5
CCCOC(=O)c1cc(-c2ccc(C(F)(F)F)n(C)c2=O)c(F)cc1Cl [1-158]	5
CCOC(C)c1cc2c(-c3ccc(C(F)(F)F)n(C)c3=O)c(F)cc(Cl)c2o1 (stereo not drawn) [Compound 4-36]	5

system: China jute (Ab); test: as above; format: in vivo; design: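 grade of growth control; 5 = at least 90%; 4 = 70 to 90%; 3 = 50 to 70%; 2 = 30 to 50%; 1 = 10 to 30%; 0 = under 10%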; conditions: dose 1.6 g ai/10a, 14th day after treatment
Experimental: as §1, §2

SMILES	Herbicidal effects Ab
CCCCCOC(=O)COc1cc(-c2ccc(C(F)(F)F)n(C)c2=O)c(F)cc1Cl [1-20]	5
CCCOC(=O)c1cc(-c2ccc(C(F)(F)F)n(C)c2=O)c(F)cc1Cl [1-158]	5
CCOC(C)c1cc2c(-c3ccc(C(F)(F)F)n(C)c3=O)c(F)cc(Cl)c2o1 (stereo not drawn) [Compound 4-36]	5

system: pale smartweed (Po); test: as above; format: in vivo; design: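 grade of growth control; 5 = at least 90%; 4 = 70 to 90%; 3 = 50 to 70%; 2 = 30 to 50%; 1 = 10 to 30%; 0 = under 10%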; conditions: dose 1.6 g ai/10a, 14th day after treatment
Experimental: as §1, §2

SMILES	Herbicidal effects Po
CCCCCOC(=O)COc1cc(-c2ccc(C(F)(F)F)n(C)c2=O)c(F)cc1Cl [1-20]	5
CCCOC(=O)c1cc(-c2ccc(C(F)(F)F)n(C)c2=O)c(F)cc1Cl [1-158]	5
CCOC(C)c1cc2c(-c3ccc(C(F)(F)F)n(C)c3=O)c(F)cc(Cl)c2o1 (stereo not drawn) [Compound 4-36]	5

system: slender amaranth (Am); test: as above; format: in vivo; design: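 grade of growth control; 5 = at least 90%; 4 = 70 to 90%; 3 = 50 to 70%; 2 = 30 to 50%; 1 = 10 to 30%; 0 = under 10%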; conditions: dose 1.6 g ai/10a, 14th day after treatment
Experimental: as §1, §2

SMILES	Herbicidal effects Am
CCCCCOC(=O)COc1cc(-c2ccc(C(F)(F)F)n(C)c2=O)c(F)cc1Cl [1-20]	5
CCCOC(=O)c1cc(-c2ccc(C(F)(F)F)n(C)c2=O)c(F)cc1Cl [1-158]	5
CCOC(C)c1cc2c(-c3ccc(C(F)(F)F)n(C)c3=O)c(F)cc(Cl)c2o1 (stereo not drawn) [Compound 4-36]	5

system: monochoria (Mo); test: Test Example 1: herbicidal effects by paddy field soil treatment; format: in vivo; conditions: 100 g of the active ingredient per 10 ares, 21st day after the application, index 0-5 of Table 47;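 note: grade of growth control; 5 = at least 90%; 4 = 70 to 90%; 3 = 50 to 70%; 2 = 30 to 50%; 1 = 10 to 30%; 0 = under 10%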
Procedure, shortened: (§3)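 Herbicidal effect was scored against a graded standard 21 days after treatment. Seeds were sown in puddled, leveled paddy soil flooded to 3 cm depth, and the active ingredient was applied at 100 g per 10 ares before greenhouse culture.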

SMILES	Herbicidal effects Mo
CCCCCOC(=O)COc1cc(-c2ccc(C(F)(F)F)n(C)c2=O)c(F)cc1Cl [1-20]	5
CCCOC(=O)c1cc(-c2ccc(C(F)(F)F)n(C)c2=O)c(F)cc1Cl [1-158]	5

system: barnyardgrass (Ec); test: as above; format: in vivo; conditions: 100 g of the active ingredient per 10 ares, 21st day after the application, index 0-5 of Table 47
Procedure, shortened: as §3

SMILES	Herbicidal effects Ec
CCCCCOC(=O)COc1cc(-c2ccc(C(F)(F)F)n(C)c2=O)c(F)cc1Cl [1-20]	5
CCCOC(=O)c1cc(-c2ccc(C(F)(F)F)n(C)c2=O)c(F)cc1Cl [1-158]	5

system: bulrush (Sc); test: as above; format: in vivo; conditions: 100 g of the active ingredient per 10 ares, 21st day after the application, index 0-5 of Table 47;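 note: grade of growth control; 5 = at least 90%; 4 = 70 to 90%; 3 = 50 to 70%; 2 = 30 to 50%; 1 = 10 to 30%; 0 = under 10%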
Procedure, shortened: as §3

SMILES	Herbicidal effects Sc
CCCCCOC(=O)COc1cc(-c2ccc(C(F)(F)F)n(C)c2=O)c(F)cc1Cl [1-20]	5
CCCOC(=O)c1cc(-c2ccc(C(F)(F)F)n(C)c2=O)c(F)cc1Cl [1-158]	5

system: rice flatsedge (Ci); test: Test Example 2: herbicidal effects by upland field soil treatment; format: in vivo; conditions: 100 g of the active ingredient per 10 ares, 21st day after the application, index 0-5 of Table 47;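 note: grade of growth control; 5 = at least 90%; 4 = 70 to 90%; 3 = 50 to 70%; 2 = 30 to 50%; 1 = 10 to 30%; 0 = under 10%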
Description: (§4) (Test on Herbicidal Effects by Upland Field Soil Treatment)

SMILES	Herbicidal effects Ci
CCCCCOC(=O)COc1cc(-c2ccc(C(F)(F)F)n(C)c2=O)c(F)cc1Cl [1-20]	5
CCCOC(=O)c1cc(-c2ccc(C(F)(F)F)n(C)c2=O)c(F)cc1Cl [1-158]	5

same assay, conditions: 100 g of the active ingredient per 10 ares, evaluated on the 21st day after application

SMILES	Herbicidal effects Ci
CCOC(C)c1cc2c(-c3ccc(C(F)(F)F)n(C)c3=O)c(F)cc(Cl)c2o1 (stereo not drawn) [Compound 4-36]	5

system: common lambsquarters (Ch); test: as above; format: in vivo; conditions: 100 g of the active ingredient per 10 ares, 21st day after the application, index 0-5 of Table 47
Description: as §4

SMILES	Herbicidal effects Ch
CCCCCOC(=O)COc1cc(-c2ccc(C(F)(F)F)n(C)c2=O)c(F)cc1Cl [1-20]	5
CCCOC(=O)c1cc(-c2ccc(C(F)(F)F)n(C)c2=O)c(F)cc1Cl [1-158]	5

same assay, conditions: 100 g of the active ingredient per 10 ares, evaluated on the 21st day after application

SMILES	Herbicidal effects Ch
CCOC(C)c1cc2c(-c3ccc(C(F)(F)F)n(C)c3=O)c(F)cc(Cl)c2o1 (stereo not drawn) [Compound 4-36]	5

system: Digitaria ciliaris (Di); test: as above; format: in vivo; conditions: 100 g of the active ingredient per 10 ares, 21st day after the application, index 0-5 of Table 47
Description: as §4

SMILES	Herbicidal effects Di
CCCCCOC(=O)COc1cc(-c2ccc(C(F)(F)F)n(C)c2=O)c(F)cc1Cl [1-20]	5
CCCOC(=O)c1cc(-c2ccc(C(F)(F)F)n(C)c2=O)c(F)cc1Cl [1-158]	5

same assay, conditions: 100 g of the active ingredient per 10 ares, evaluated on the 21st day after application

SMILES	Herbicidal effects Di
CCOC(C)c1cc2c(-c3ccc(C(F)(F)F)n(C)c3=O)c(F)cc(Cl)c2o1 (stereo not drawn) [Compound 4-36]	5

system: barnyardgrass (Ec); test: as above; format: in vivo; conditions: 100 g of the active ingredient per 10 ares, 21st day after the application, index 0-5 of Table 47
Description: as §4

SMILES	Herbicidal effects Ec
CCCCCOC(=O)COc1cc(-c2ccc(C(F)(F)F)n(C)c2=O)c(F)cc1Cl [1-20]	5
CCCOC(=O)c1cc(-c2ccc(C(F)(F)F)n(C)c2=O)c(F)cc1Cl [1-158]	5

same assay, conditions: 100 g of the active ingredient per 10 ares, evaluated on the 21st day after application

SMILES	Herbicidal effects Ec
CCOC(C)c1cc2c(-c3ccc(C(F)(F)F)n(C)c3=O)c(F)cc(Cl)c2o1 (stereo not drawn) [Compound 4-36]	5

system: pale smartweed (Po); test: as above; format: in vivo; conditions: 100 g of the active ingredient per 10 ares, 21st day after the application, index 0-5 of Table 47
Description: as §4

SMILES	Herbicidal effects Po
CCCCCOC(=O)COc1cc(-c2ccc(C(F)(F)F)n(C)c2=O)c(F)cc1Cl [1-20]	5
CCCOC(=O)c1cc(-c2ccc(C(F)(F)F)n(C)c2=O)c(F)cc1Cl [1-158]	5

same assay, conditions: 100 g of the active ingredient per 10 ares, evaluated on the 21st day after application

SMILES	Herbicidal effects Po
CCOC(C)c1cc2c(-c3ccc(C(F)(F)F)n(C)c3=O)c(F)cc(Cl)c2o1 (stereo not drawn) [Compound 4-36]	5

system: slender amaranth (Am); test: as above; format: in vivo; conditions: 100 g of the active ingredient per 10 ares, 21st day after the application, index 0-5 of Table 47
Description: as §4

SMILES	Herbicidal effects Am
CCCCCOC(=O)COc1cc(-c2ccc(C(F)(F)F)n(C)c2=O)c(F)cc1Cl [1-20]	5
CCCOC(=O)c1cc(-c2ccc(C(F)(F)F)n(C)c2=O)c(F)cc1Cl [1-158]	5

same assay, conditions: 100 g of the active ingredient per 10 ares, evaluated on the 21st day after application

SMILES	Herbicidal effects Am
CCOC(C)c1cc2c(-c3ccc(C(F)(F)F)n(C)c3=O)c(F)cc(Cl)c2o1 (stereo not drawn) [Compound 4-36]	5

system: rice flatsedge (Ci); test: Test Example 3: herbicidal effects by upland field foliage treatment; format: in vivo; design: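 grade of growth control; 5 = at least 90%; 4 = 70 to 90%; 3 = 50 to 70%; 2 = 30 to 50%; 1 = 10 to 30%; 0 = under 10%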; conditions: 100 g active ingredient per 10 ares, evaluated 14th day after treatment
Procedure, shortened: (§5)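 Readout: visual herbicidal rating per defined standards, 14th day after treatment. Plants sown in sand (pot area 120 cm^2), soil-covered, greenhouse-cultured for 2 weeks prior to foliage application, then greenhouse-grown until scoring.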

SMILES	Herbicidal effects Ci
CCOC(C)c1cc2c(-c3ccc(C(F)(F)F)n(C)c3=O)c(F)cc(Cl)c2o1 (stereo not drawn) [Compound 4-36]	5

same assay, conditions: 100 g of the active ingredient per 10 ares, evaluated on the 14th day after treatment

SMILES	Herbicidal effects Ci
CCCCCOC(=O)COc1cc(-c2ccc(C(F)(F)F)n(C)c2=O)c(F)cc1Cl [1-20]	5
CCCOC(=O)c1cc(-c2ccc(C(F)(F)F)n(C)c2=O)c(F)cc1Cl [1-158]	5

system: common lambsquarters (Ch); test: as above; format: in vivo; design: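 grade of growth control; 5 = at least 90%; 4 = 70 to 90%; 3 = 50 to 70%; 2 = 30 to 50%; 1 = 10 to 30%; 0 = under 10%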; conditions: 100 g active ingredient per 10 ares, evaluated 14th day after treatment
Procedure, shortened: as §5

SMILES	Herbicidal effects Ch
CCOC(C)c1cc2c(-c3ccc(C(F)(F)F)n(C)c3=O)c(F)cc(Cl)c2o1 (stereo not drawn) [Compound 4-36]	5

same assay, conditions: 100 g of the active ingredient per 10 ares, evaluated on the 14th day after treatment

SMILES	Herbicidal effects Ch
CCCCCOC(=O)COc1cc(-c2ccc(C(F)(F)F)n(C)c2=O)c(F)cc1Cl [1-20]	5
CCCOC(=O)c1cc(-c2ccc(C(F)(F)F)n(C)c2=O)c(F)cc1Cl [1-158]	5

system: barnyardgrass (Ec); test: as above; format: in vivo; design: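 grade of growth control; 5 = at least 90%; 4 = 70 to 90%; 3 = 50 to 70%; 2 = 30 to 50%; 1 = 10 to 30%; 0 = under 10%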; conditions: 100 g active ingredient per 10 ares, evaluated 14th day after treatment
Procedure, shortened: as §5

SMILES	Herbicidal effects Ec
CCOC(C)c1cc2c(-c3ccc(C(F)(F)F)n(C)c3=O)c(F)cc(Cl)c2o1 (stereo not drawn) [Compound 4-36]	5

same assay, conditions: 100 g of the active ingredient per 10 ares, evaluated on the 14th day after treatment

SMILES	Herbicidal effects Ec
CCCCCOC(=O)COc1cc(-c2ccc(C(F)(F)F)n(C)c2=O)c(F)cc1Cl [1-20]	5
CCCOC(=O)c1cc(-c2ccc(C(F)(F)F)n(C)c2=O)c(F)cc1Cl [1-158]	5

system: pale smartweed (Po); test: as above; format: in vivo; design: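 grade of growth control; 5 = at least 90%; 4 = 70 to 90%; 3 = 50 to 70%; 2 = 30 to 50%; 1 = 10 to 30%; 0 = under 10%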; conditions: 100 g active ingredient per 10 ares, evaluated 14th day after treatment
Procedure, shortened: as §5

SMILES	Herbicidal effects Po
CCOC(C)c1cc2c(-c3ccc(C(F)(F)F)n(C)c3=O)c(F)cc(Cl)c2o1 (stereo not drawn) [Compound 4-36]	5

same assay, conditions: 100 g of the active ingredient per 10 ares, evaluated on the 14th day after treatment

SMILES	Herbicidal effects Po
CCCCCOC(=O)COc1cc(-c2ccc(C(F)(F)F)n(C)c2=O)c(F)cc1Cl [1-20]	5
CCCOC(=O)c1cc(-c2ccc(C(F)(F)F)n(C)c2=O)c(F)cc1Cl [1-158]	5

system: slender amaranth (Am); test: as above; format: in vivo; design: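 grade of growth control; 5 = at least 90%; 4 = 70 to 90%; 3 = 50 to 70%; 2 = 30 to 50%; 1 = 10 to 30%; 0 = under 10%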; conditions: 100 g active ingredient per 10 ares, evaluated 14th day after treatment
Procedure, shortened: as §5

SMILES	Herbicidal effects Am
CCOC(C)c1cc2c(-c3ccc(C(F)(F)F)n(C)c3=O)c(F)cc(Cl)c2o1 (stereo not drawn) [Compound 4-36]	5

same assay, conditions: 100 g of the active ingredient per 10 ares, evaluated on the 14th day after treatment

SMILES	Herbicidal effects Am
CCCCCOC(=O)COc1cc(-c2ccc(C(F)(F)F)n(C)c2=O)c(F)cc1Cl [1-20]	5
CCCOC(=O)c1cc(-c2ccc(C(F)(F)F)n(C)c2=O)c(F)cc1Cl [1-158]	5

system: Diaitaria ciliaris (Di); test: as above; format: in vivo; design: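 grade of growth control; 5 = at least 90%; 4 = 70 to 90%; 3 = 50 to 70%; 2 = 30 to 50%; 1 = 10 to 30%; 0 = under 10%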; conditions: 100 g active ingredient per 10 ares, evaluated 14th day after treatment
Procedure, shortened: as §5

SMILES	Herbicidal effects Di
CCOC(C)c1cc2c(-c3ccc(C(F)(F)F)n(C)c3=O)c(F)cc(Cl)c2o1 (stereo not drawn) [Compound 4-36]	5

same assay, conditions: 100 g of the active ingredient per 10 ares, evaluated on the 14th day after treatment

SMILES	Herbicidal effects Di
CCCCCOC(=O)COc1cc(-c2ccc(C(F)(F)F)n(C)c2=O)c(F)cc1Cl [1-20]	5
CCCOC(=O)c1cc(-c2ccc(C(F)(F)F)n(C)c2=O)c(F)cc1Cl [1-158]	5
